Experimental data as given in patent US11191722B2, “Treatment of diabetes mellitus by long-acting formulations of insulins” (SANOFI, priority 2013, dated 2021).

System: patients with type 2 diabetes mellitus
Details: in vivo
Source text: Hypoglycemia, occurrence of adverse events particularly treatment-emergent adverse events (TEAEs) and serious adverse events (SAEs), injection site reactions and hypersensitivity reactions.
Safety analyses were descriptive, based on the safety population.

insulin glargine [HOE901-U300]
Death on-study during first 6 months: 2 (0.5%) n (%)
Death post-study: 0 n (%)

insulin glargine [Lantus]
Death on-study during first 6 months: 2 (0.5%) n (%)
Death post-study: 0 n (%)
